Reference: article PMC11003488 (Journal of Enzyme Inhibition and Medicinal Chemistry, 2023)

Legend:
CCRF-CEM = assay: NCI-60 SRB growth inhibition, one-dose and five-dose; assay type: cell-based; conditions: Homo sapiens, read-out: percent growth inhibition
HL-60(TB) = assay: cells; assay type: cell-based; conditions: Homo sapiens, HL-60, read-out: percent growth inhibition
K-562 = assay: NCI-60 SRB growth inhibition, one-dose and five-dose; assay type: cell-based; conditions: Homo sapiens, K562, read-out: percent growth inhibition
MOLT-4 = assay: as above; assay type: cell-based; conditions: Homo sapiens, MOLT-4, read-out: percent growth inhibition
SR = assay: as above; assay type: cell-based; conditions: Homo sapiens, read-out: percent growth inhibition
A549/ATCC = assay: as above; assay type: cell-based; conditions: Homo sapiens, A549, read-out: percent growth inhibition
EKVX = assay: as above; assay type: cell-based; conditions: Homo sapiens, read-out: percent growth inhibition
HOP-62 = assay: as above; assay type: cell-based; conditions: Homo sapiens, HOP-62, read-out: percent growth inhibition
HOP-92 = assay: as above; assay type: cell-based; conditions: Homo sapiens, HOP-92, read-out: percent growth inhibition
NCI-H226 = assay: as above; assay type: cell-based; conditions: Homo sapiens, NCI-H226, read-out: percent growth inhibition
NCI-H522 = assay: as above; assay type: cell-based; conditions: Homo sapiens, NCI-H522, read-out: percent growth inhibition
COLO 205 = assay: as above; assay type: cell-based; conditions: Homo sapiens, COLO 205, read-out: percent growth inhibition
HCC-2998 = assay: as above; assay type: cell-based; conditions: Homo sapiens, HCC 2998, read-out: percent growth inhibition
HCT-116 = assay: as above; assay type: cell-based; conditions: Homo sapiens, HCT-116, read-out: percent growth inhibition
HCT-15 = assay: as above; assay type: cell-based; conditions: Homo sapiens, HCT-15, read-out: percent growth inhibition
KM12 = assay: as above; assay type: cell-based; conditions: Homo sapiens, KM12, read-out: percent growth inhibition
SF-268 = assay: as above; assay type: cell-based; conditions: Homo sapiens, SF-268, read-out: percent growth inhibition
SF-539 = assay: as above; assay type: cell-based; conditions: Homo sapiens, SF-539, read-out: percent growth inhibition
SNB-19 = assay: as above; assay type: cell-based; conditions: Homo sapiens, SNB-19, read-out: percent growth inhibition
U251 = assay: as above; assay type: cell-based; conditions: Homo sapiens, U-251, read-out: percent growth inhibition
LOX IMVI = assay: as above; assay type: cell-based; conditions: Homo sapiens, read-out: percent growth inhibition
MALME-3M = assay: as above; assay type: cell-based; conditions: Homo sapiens, read-out: percent growth inhibition
MDA-MB-435 = assay: as above; assay type: cell-based; conditions: Homo sapiens, MDA-MB-435, read-out: percent growth inhibition
SK-MEL-28 = assay: as above; assay type: cell-based; conditions: Homo sapiens, SK-MEL-28, read-out: percent growth inhibition
SK-MEL-5 = assay: as above; assay type: cell-based; conditions: Homo sapiens, SK-MEL-5, read-out: percent growth inhibition
IGROV1 = assay: as above; assay type: cell-based; conditions: Homo sapiens, IGROV-1, read-out: percent growth inhibition
OVCAR-3 = assay: as above; assay type: cell-based; conditions: Homo sapiens, OVCAR-3, read-out: percent growth inhibition
OVCAR-4 = assay: as above; assay type: cell-based; conditions: Homo sapiens, OVCAR-4, read-out: percent growth inhibition
OVCAR-5 = assay: as above; assay type: cell-based; conditions: Homo sapiens, OVCAR-5, read-out: percent growth inhibition
OVCAR-8 = assay: as above; assay type: cell-based; conditions: Homo sapiens, OVCAR-8, read-out: percent growth inhibition
A498 = assay: as above; assay type: cell-based; conditions: Homo sapiens, A498, read-out: percent growth inhibition
CAKI-1 = assay: as above; assay type: cell-based; conditions: Homo sapiens, CAKI-1, read-out: percent growth inhibition
RXF 393 = assay: as above; assay type: cell-based; conditions: Homo sapiens, RXF 393, read-out: percent growth inhibition
PC-3 = assay: as above; assay type: cell-based; conditions: Homo sapiens, PC-3, read-out: percent growth inhibition
DU-145 = assay: as above; assay type: cell-based; conditions: Homo sapiens, DU-145, read-out: percent growth inhibition
MCF7 = assay: as above; assay type: cell-based; conditions: Homo sapiens, MCF7, read-out: percent growth inhibition
HS 578 T = assay: as above; assay type: cell-based; conditions: Homo sapiens, read-out: percent growth inhibition
BT-549 = assay: as above; assay type: cell-based; conditions: Homo sapiens, BT-549, read-out: percent growth inhibition
T-47D = assay: as above; assay type: cell-based; conditions: Homo sapiens, T47D, read-out: percent growth inhibition
MDA-MB-468 = assay: as above; assay type: cell-based; conditions: Homo sapiens, MDA-MB-468, read-out: percent growth inhibition
[1] = test system: NCI 60-cell line panel (full panel); assay: NCI-60 SRB growth inhibition, full panel mean / MG-MID; assay type: cell-based, human; conditions: mean over NCI-60 panel; single dose 10 µM
SK-MEL-2 = assay: NCI-60 SRB growth inhibition, one-dose and five-dose; assay type: cell-based; conditions: Homo sapiens, SK-MEL-2, read-out: percent growth inhibition

Work on `O=C(/C=C/c1c[nH]cn1)c1cccc(NCc2ccc3oc(=O)ccc3c2)c1` [Compound 5n, (E)-6-(((3–(3-(1H-imidazol-4-yl)acryloyl)phenyl)amino)methyl)-2H-chromen-2-one] yielded an inhibition at 10 µM (CCRF-CEM) of 62.1%, an inhibition at 10 µM (HL-60(TB)) of 85.4% and an inhibition at 10 µM (K-562) of 87.2%. The inhibition at 10 µM (MOLT-4) was 61.1%, the inhibition at 10 µM (SR) was 98.1% and the inhibition at 10 µM (A549/ATCC) was 25.6%. It also gave an inhibition at 10 µM (EKVX) of 45.6%, an inhibition at 10 µM (HOP-62) of 24.3% and an inhibition at 10 µM (HOP-92) of 25.8%. The inhibition at 10 µM (NCI-H226) was 28.2%, the inhibition at 10 µM (NCI-H522) was 138% and the inhibition at 10 µM (COLO 205) was 29.2%. The inhibition at 10 µM (HCC-2998) was 16.8%, the inhibition at 10 µM (HCT-116) was 58.1% and the inhibition at 10 µM (HCT-15) was 33.9%. The inhibition at 10 µM (KM12) was 25.1%, the inhibition at 10 µM (SF-268) was 10.9% and the inhibition at 10 µM (SF-539) was 14.8%. The inhibition at 10 µM (SNB-19) was 25.7%, the inhibition at 10 µM (U251) was 68.2% and the inhibition at 10 µM (LOX IMVI) was 75.9%. It also gave an inhibition at 10 µM (MALME-3M) of 37.8%, an inhibition at 10 µM (MDA-MB-435) of 14.5% and an inhibition at 10 µM (SK-MEL-28) of 13.3%. For the same compound, the inhibition at 10 µM (SK-MEL-5) was 30.6%, the inhibition at 10 µM (IGROV1) was 16.6% and the inhibition at 10 µM (OVCAR-3) was 13.8%. The inhibition at 10 µM (OVCAR-4) was 39.2%, the inhibition at 10 µM (OVCAR-5) was 10.4% and the inhibition at 10 µM (OVCAR-8) was 32.5%. For the same compound, the inhibition at 10 µM (A498) was 4.82%, the inhibition at 10 µM (CAKI-1) was 8.01% and the inhibition at 10 µM (RXF 393) was 38.5%. It also gave an inhibition at 10 µM (PC-3) of 17.1%, an inhibition at 10 µM (DU-145) of 20.9% and an inhibition at 10 µM (MCF7) of 90.1%. For the same compound, the inhibition at 10 µM (HS 578 T) was 13.6%, the inhibition at 10 µM (BT-549) was 22.9% and the inhibition at 10 µM (T-47D) was 54%. For the same compound, the inhibition at 10 µM (MDA-MB-468) was 83.2% and the “Full panel Mean GI %” value [1] was 37.53%.
`CC(=O)Nc1ccc(/C=C/C(=O)c2cccc(NCc3ccc4oc(=O)ccc4c3)c2)cc1` [Compound 5k, (E)-N-(4–(3-oxo-3–(3-(((2-oxo-2H-chromen-6-yl)methyl)amino)phenyl)prop-1-en-1-yl)phenyl)acetamide] was tested, and the inhibition at 10 µM (CCRF-CEM) was 87.9%, the inhibition at 10 µM (HL-60(TB)) was 59% and the inhibition at 10 µM (K-562) was 93.3%. It also gave an inhibition at 10 µM (MOLT-4) of 84.2%, an inhibition at 10 µM (A549/ATCC) of 21.5% and an inhibition at 10 µM (EKVX) of 64.5%. It also gave an inhibition at 10 µM (HOP-62) of 10.8%, an inhibition at 10 µM (HOP-92) of 3.27% and an inhibition at 10 µM (NCI-H226) of 35.7%. It also gave an inhibition at 10 µM (NCI-H522) of 36.3%, an inhibition at 10 µM (COLO 205) of -13.2% and an inhibition at 10 µM (HCC-2998) of 10%. It also gave an inhibition at 10 µM (HCT-116) of 78.8%, an inhibition at 10 µM (HCT-15) of 50.7% and an inhibition at 10 µM (KM12) of 34.4%. The inhibition at 10 µM (SF-268) was 18.2%, the inhibition at 10 µM (SF-539) was 19% and the inhibition at 10 µM (SNB-19) was 38.8%. It also gave an inhibition at 10 µM (U251) of 49%, an inhibition at 10 µM (LOX IMVI) of 57.8% and an inhibition at 10 µM (MALME-3M) of 37.8%. The inhibition at 10 µM (MDA-MB-435) was 22.1%, the inhibition at 10 µM (SK-MEL-2) was 35.7% and the inhibition at 10 µM (SK-MEL-28) was 21.2%. For the same compound, the inhibition at 10 µM (SK-MEL-5) was 76.3%, the inhibition at 10 µM (IGROV1) was 23.3% and the inhibition at 10 µM (OVCAR-3) was 41.7%. The inhibition at 10 µM (OVCAR-4) was 43.9%, the inhibition at 10 µM (OVCAR-5) was 16.8% and the inhibition at 10 µM (OVCAR-8) was 34.9%. For the same compound, the inhibition at 10 µM (A498) was 20.4%, the inhibition at 10 µM (CAKI-1) was 37.7% and the inhibition at 10 µM (RXF 393) was 18%. It also gave an inhibition at 10 µM (PC-3) of 27.6%, an inhibition at 10 µM (DU-145) of 18.3% and an inhibition at 10 µM (MCF7) of 73.6%. It also gave an inhibition at 10 µM (HS 578 T) of 22.1%, an inhibition at 10 µM (BT-549) of 55.8% and an inhibition at 10 µM (T-47D) of 66%. The inhibition at 10 µM (MDA-MB-468) was 72.9% and the “Full panel Mean GI %” value [1] was 39.00%.
